Assays:
Format in all cases: cell-based
C. albicans ATCC 90028 = conditions: C. albicans ATCC 90028; read at 50% growth inhibition for echinocandins (24 h), 100% for amphotericin B (48 h)
Procedure: (§1) MIC and MEC assays were run as described in Example 31 with the following exceptions. Starting solutions of all antifungal agents were prepared in 100% DMSO. Stock concentrations were made at 50× the highest final assay concentration and serially diluted 2-fold, 16 times in a 96-well PCR plate (VWR 83007-374). Candida and Aspergillus suspensions from Sabouraud dextrose agar plate cultures were prepared in 0.85% saline at 0.5 McFarland standard (˜0.1 OD530 nm). Candida suspensions were diluted 1:500 in RPMI (MP Biomedicals, cat no. 1060124; buffered with MOPS and adjusted with NaOH to pH 7.0) to a concentration of ˜0.5-2.5×10^3 CFU/mL and Aspergillus suspensions were diluted 1:50 in RPMI to 0.4-5×10^4 CFU/mL final concentration. 98 μL of each cell suspension in RPMI were added to test wells in a 96-well assay plate (Costar cat. no. 3370). A Beckman Multimek 96 liquid handling robot was used to dispense 2 μL of each 50× stock compound into the plate containing 98 μL of each strain in RPMI (2% final solvent concentration). Plates were shaken then incubated at 35° C. for 24-48 h prior to reading. MIC values were read visually at 50% growth inhibition for echinocandins (24 h) and at 100% growth inhibition for amphotericin B (48 h). MEC values (24 h) were read with the aid of a microscope at the lowest echinocandin concentration where rounded/compact hyphal morphology was observed.

C. glabrata ATCC 90030 = conditions: C. glabrata ATCC 90030; read at 50% growth inhibition for echinocandins (24 h), 100% for amphotericin B (48 h)
Procedure: as §1

C. krusei ATCC 14243 = conditions: C. krusei ATCC 14243; read at 50% growth inhibition for echinocandins (24 h), 100% for amphotericin B (48 h)
Procedure: as §1

[1] = test system: C. parapsilosis ATCC 22019; conditions: C. parapsilosis ATCC 22019; read at 50% growth inhibition for echinocandins (24 h), 100% for amphotericin B (48 h)
Procedure: as §1

C. tropicalis ATCC 750 = conditions: C. tropicalis ATCC 750; read at 50% growth inhibition for echinocandins (24 h), 100% for amphotericin B (48 h)
Procedure: as §1

A. flavus ATCC MYA-3631 = experiment: MEC assay (Example 32); conditions: MEC values (24 h), rounded/compact hyphal morphology
Procedure: as §1

A. fumigatus ATCC 13073 = experiment: MEC assay (Example 32); conditions: MEC values (24 h), rounded/compact hyphal morphology
Procedure: as §1

A. fumigatus MYA-3626 = experiment: MEC assay (Example 32); conditions: MEC values (24 h), rounded/compact hyphal morphology
Procedure: as §1

A. fumigatus MYA-4609 = experiment: MEC assay (Example 32); conditions: MEC values (24 h), rounded/compact hyphal morphology
Procedure: as §1

A. niger ATCC 16404 = experiment: MEC assay (Example 32); conditions: MEC values (24 h), rounded/compact hyphal morphology
Procedure: as §1

caspofungin acetate [reference compound]
MIC (C. albicans ATCC 90028): 0.125 µg/mL
MIC (C. glabrata ATCC 90030): 0.25 µg/mL
MIC (C. krusei ATCC 14243): 0.25 µg/mL
MIC [1]: 0.5 µg/mL
MIC (C. tropicalis ATCC 750): 0.125 µg/mL
MEC (A. flavus ATCC MYA-3631): 0.06 µg/mL
MEC (A. fumigatus ATCC 13073): 0.03 µg/mL
MEC (A. fumigatus MYA-3626): 0.06 µg/mL
MEC (A. fumigatus MYA-4609): 0.06 µg/mL
MEC (A. niger ATCC 16404): 0.06 µg/mL
